Data taken from patent US7208450B2, “Pesticidal (dihalopropenyl) phenylalkyl substituted benzoxazole and benzothiazole derivatives” (Bayer CropScience AG, priority 2003, dated 2007).

Columns and labels:
[1] = system: tobacco budworm (Heliothis virescens [Fabricius]); assay: surface-treated diet test against tobacco budworm; type: in vivo; conditions: 0.25 millimolar on surface of diet, second instar larvae, five-day exposure; for Percent Growth Inhibition: insect weight relative to untreated controls
Source text: The test compounds of formula I are identified by numbers that correspond to those in Table 1.

tobacco budworm = assay: foliar treated test against tobacco budworm on chick pea plants; type: in vivo, Heliothis virescens; conditions: sprayed chick pea foliage, 96 hour exposure, dead plus moribund insects
Experimental: Certain compounds of formula I were tested against tobacco budworm on plant foliage. The foliar treated test against tobacco budworm were conducted in the following manner:
Nine-to-ten day-old chick pea plants (Cicer arietinum) were sprayed at 15 psi to runoff on both upper and lower leaf surfaces with solutions of test compound to provide application rates as high as 1000 ppm of test chemical. The solvent used to prepare the solutions of test compound was 10% acetone or methanol (v/v) and 0.1% of the surfactant octylphenoxypolyethoxyethanol in distilled water. Four replicates, each containing one chick pea plant, for each rate of application of test compound were sprayed. The treated plants were transferred to a hood where they were kept until the spray had dried.
The four chick pea plants for each replicate treated with test compound as described above were removed from their pots by cutting the stems just above the soil line. The excised leaves and stems from the four plants in each replicate were placed in individual 237 mL (8-ounce) paper cups, which contained a moistened filter paper. Five second-instar tobacco budworm (7 days old) were counted into each cup, taking care not to cause injury. An opaque plastic lid was placed on each cup, which was then held in a growth chamber for a 96 hour exposure period at 25° C. 50% relative humidity and photo-period of 12 hours light and 12 hours dark. At the end of the 96 hour exposure period the cups were opened, and the numbers of dead, moribund, and live insects were counted. Using the insect counts, the efficacy of the test compound was expressed in percent control. Percent control is derived from the total number of dead insects (TD) plus the total number of moribund insects (TM) as compared to the total number of insects (TI) in the test:
The condition of the test plants was also observed for phytotoxicity and for reduction of feeding damage as compared to an untreated control.

SMILES	Percent Mortality [1]	Percent Growth Inhibition [1]	Percent Control of Tobacco Budworm in a Foliar Test (tobacco budworm; 10 ppm)	Percent Control of Tobacco Budworm in a Foliar Test (tobacco budworm; 30 ppm)
FC(F)(F)c1nc2ccc(OCCCOc3c(Cl)cc(OCC=C(Cl)Cl)cc3Cl)cc2o1 [Compound 3, 5-(3,3-dichloroprop-2-enyloxy)-1,3dichloro-2-{3-[2-(trifluoromethyl)benzoxazol-6-yloxy]propoxy}benzene]	100%	100%	100%	100%
Cc1nc2cc(OCCCCCOc3c(Cl)cc(OCC=C(Cl)Cl)cc3Cl)ccc2s1 [Compound 12, 5-(3,3-dichloroprop-2-enyloxy)-1,3-dichloro-2-[5-(2-methylbenzothiazol-5-yloxy)pentyloxy]benzene]	100%	100%	15%	–
FC(F)(F)c1nc2ccc(OCCCCOc3c(Cl)cc(OCC=C(Cl)Cl)cc3Cl)cc2o1 [Compound 6, 5-(3,3-dichloroprop-2-enyloxy)-1,3-dichloro-2-{4-[2-(trifluoromethyl)benzoxazol-6-yloxy]butoxy}benzene]	100%	100%	70%	95%
CC1(C)Oc2ccc(OCCCCOc3c(Cl)cc(OCC=C(Cl)Cl)cc3Cl)cc2O1 [Compound 4]	–	–	15%	55%
